Key:
[1] = test system: lipase preparation AY “Amano” 30SD; assay: Lipase-induced scent emission test, lipase preparation AY “Amano” 30SD; type: biochemical; details: GC/MS head space peak area of scent-emitting compound minus water control; 10 mg fragrance precursor + 1 g aqueous 1% lipase preparation solution
Experimental: (§1) 10 mg of a fragrance precursor and 1 g of an aqueous 1% lipase preparation solution were put in a vial bottle and mixed and after hermetically sealing the bottle, the mixture was subjected to GC/MS analysis of the head space component to obtain a peak area of the scent-emitting compound. As a control, water was used in place of the aqueous 1% lipase preparation solution, and a peak area of the control was obtained by the same method. The scent emission amount was determined from the difference between the obtained peak area of the scent-emitting compound and the peak area of the control.
(§2) (GC/MS Measurement Conditions)
(§3) Measurement instrument: 7890GC/5975M (manufactured by Agilent Technologies) • Column: BC-WAX50 m×0.25 mm I.D. • Temperature rise: 70° C. to 220° C., 4° C./min • Split ratio: 60:1

[2] = test system: Pseudomonas aeruginosa NBRC13275; assay: Scent emission test by microorganism, Pseudomonas aeruginosa; type: cell-based; details: GC/MS head space peak area minus control culture; 10 mg fragrance precursor in 3 mL culture solution, 30° C., 20 hours
Experimental: (§4) Culture of Staphylococcus aureus strain NBRC12732, Corynebacterium xerosis strain JCM1324, Pseudomonas aeruginosa strain NBRC13275, and Moraxella osloensis strain ATCC19976:
(§5) After inoculating each of bacteria in Muller-Hinton liquid medium, shaking culture was performed at 30° C. for 20 hours, and 3 mL of the resulting preculture solution was transferred to a vial bottle. 10 mg of each of the fragrance precursors was mixed therewith and after hermetical sealing, shaking culture was further performed at 30° C. for 20 hours.
(§6) A peak area of the scent-emitting compound was obtained by performing GC/MS analysis of the head space component included in the vial bottle containing 3 mL of a microorganism culture solution in which 10 mg of the fragrance precursor was mixed. A microorganism culture solution having not mixed therein the fragrance precursor was used as the control, and a peak area of the control was obtained by the same method. The scent emission amount was determined from the difference between the obtained peak area of the scent-emitting compound and the peak area of the control.
(§7) Measurement instrument: 7890GC/5975MSD (manufactured by Agilent Technologies) • Column: BC-WAX 50 m×0.25 mm I.D. • Temperature rise: 70° C. to 220° C., 4° C./min • Split ratio: splitless

[3] = test system: Moraxella osloensis ATCC19976; assay: Scent emission test by microorganism, Moraxella osloensis; type: cell-based; details: GC/MS head space peak area minus control culture; 10 mg fragrance precursor in 3 mL culture solution, 30° C., 20 hours
Experimental: as §4, §5, §6, §7

[4] = test system: Propionibacterium acnes JCM6473; assay: Scent emission test by microorganism, Propionibacterium acnes; type: cell-based; details: GC/MS head space peak area minus control culture; 10 mg fragrance precursor in 3 mL culture solution, static culture 28° C., 3 days
Experimental: Culture of Propionibacterium acnes Strain JCM6473:
(§8) After inoculating the bacterium in GAM bouillon liquid medium containing Hemin 0.5 ppm and Menadione 0.5 ppm, static culture was performed at 28° C. for 3 days under anaerobic conditions, and 3 mL of the resulting preculture solution was transferred to a vial bottle. 10 mg of each of the fragrance precursors was mixed therewith and after hermetical sealing, static culture was further performed at 28° C. for 3 days.
as §6, §7

[5] = test system: Malassezia furfur NBRC0656; assay: Scent emission test by microorganism, Malassezia furfur; type: cell-based; details: GC/MS head space peak area minus control culture; 10 mg fragrance precursor in 3 mL culture solution, static culture 28° C., 3 days
Experimental: Culture of Malassezia furfur Strain NBRC0656:
as §8, with “Sabouraud” for “GAM bouillon”, “0.1% Tween 80,” for “Hemin 0.5 ppm and Menadione 0.5 ppm,”, “of” for “of each of”, “precursor” for “precursors”
as §6, §7

[6] = test system: Staphylococcus aureus NBRC12732; assay: Scent emission test by microorganism, Staphylococcus aureus; type: cell-based; details: GC/MS head space peak area minus control culture; 10 mg fragrance precursor in 3 mL culture solution, 30° C., 20 hours
Experimental: as §4, §5, §6, §7

[7] = target: T1, lipase preparation Lipex 100 L (Thermomyces lanuginosus, UniProt O59952, N255R/T253R); assay: Lipase-induced scent emission test, lipase preparation Lipex 100 L; type: biochemical; details: for Scent Emission Amount: GC/MS head space peak area of scent-emitting compound minus water control, 10 mg fragrance precursor + 1 g aqueous 1% lipase preparation solution; for Scent-Emitting Compound: compound released, GC/MS of head space
T1 construct: purchased Novozymes Lipex 100 L
Experimental: as §1, §2, §3

[8] = test system: Corynebacterium xerosis JCM1324; assay: Scent emission test by microorganism, Corynebacterium xerosis; type: cell-based; details: GC/MS head space peak area minus control culture; 10 mg fragrance precursor in 3 mL culture solution, 30° C., 20 hours
Experimental: as §4, §5, §6, §7

T1 sequence (O59952 23-291 T253R/N255R): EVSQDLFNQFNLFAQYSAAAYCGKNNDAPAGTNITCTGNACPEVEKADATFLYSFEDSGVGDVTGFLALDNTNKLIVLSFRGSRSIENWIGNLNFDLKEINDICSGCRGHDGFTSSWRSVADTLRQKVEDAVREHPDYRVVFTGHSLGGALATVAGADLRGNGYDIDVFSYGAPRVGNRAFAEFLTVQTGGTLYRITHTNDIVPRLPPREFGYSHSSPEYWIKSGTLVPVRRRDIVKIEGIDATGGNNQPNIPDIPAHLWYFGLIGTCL

Compound: CC(C)[C@@H]1CC[C@@H](C)C[C@H]1OC(=O)c1ccccc1 [Example 6, (1R,2S,5R)-isopropyl-5-methylcyclohexyl benzoate]
- Scent Emission Amount [1]: 82,023,336

Compound: CC(C)=CCCC(C)CCOC(=O)Cc1ccccc1 (stereo not drawn) [citronellyl phenylacetate]
- Scent Emission Amount [2]: 150,385,642
- Scent Emission Amount [3]: 500,940,481
- Scent Emission Amount [4]: 292,401,763
- Scent Emission Amount [5]: 369,118,269

Compound: CC/C=C\CCOC(=O)c1ccccc1 [Example 11, (Z)-3-hexenyl Benzoate]
- Scent Emission Amount [1]: 49,663,459

Compound: O=C(C=Cc1ccccc1)OCC=Cc1ccccc1 [cinnamyl cinnamate]
- Scent Emission Amount [1]: 24,711,289

Compound: CC(C)=CCC/C(C)=C/COC(=O)c1ccccc1 [geranyl benzoate]
- Scent Emission Amount [1]: 78,461,812
- Scent Emission Amount [6]: 839,961,157
- Scent Emission Amount [2]: 117,161,311
- Scent Emission Amount [4]: 105,061,217
- Scent Emission Amount [5]: 121,633,184

Compound: COc1cc(C=O)ccc1OC(=O)c1ccccc1 [Example 13, 4-formyl-2-methoxyphenyl Benzoate]
- Scent Emission Amount [7]: 47,188,750
- Scent-Emitting Compound [7]: vanillin

Compound: CC(C)=CCC/C(C)=C/CC[C@H](C)CCOC(=O)c1ccccc1 [Example 7, (S,E)-3,7,11-trimethyl-6,10-dodecadienyl Benzoate]
- Scent Emission Amount [1]: 88,986,381

Compound: O=C(C=Cc1ccccc1)OCCc1ccccc1 [phenylethyl cinnamate]
- Scent Emission Amount [1]: 22,892,002
- Scent Emission Amount [6]: 144,750,281
- Scent Emission Amount [2]: 247,508,719
- Scent Emission Amount [4]: 112,497,882
- Scent Emission Amount [5]: 351,450,490

Compound: C=CCc1ccc(OC(=O)c2ccccc2)c(OC)c1 [Example 12, 4-allyl-2-methoxyphenyl benzoate]
- Scent Emission Amount [7]: 164,744,420
- Scent-Emitting Compound [7]: eugenol

Compound: CC/C=C\CCOC(=O)c1ccccc1O [(Z)-3-hexenyl salicylate]
- Scent Emission Amount [1]: 16,933,990
- Scent Emission Amount [6]: 14,126,965

Compound: C=C(C)CCC[C@H](C)CCOC(=O)Cc1ccccc1 [rosinyl phenylacetate]
- Scent Emission Amount [1]: 56,492,946

Compound: C=CCCCCCCCCOC(=O)c1ccccc1 [Example 14, 9-decenyl Benzoate]
- Scent Emission Amount [3]: 86,274,718
- Scent Emission Amount [4]: 133,440,692
- Scent Emission Amount [5]: 304,030,021

Compound: CC(C)=CCC[C@H](C)CCOC(=O)c1ccccc1 [Example 1, 3,7-dimethyl-6-octenyl benzoate]
- Scent Emission Amount [7]: 28,098,876
- Scent-Emitting Compound [7]: citronellol

Compound: COc1ccc(C(=O)OCC[C@@H](C)CC/C=C(\C)CCC=C(C)C)cc1 [Example 8, (S,E)-3,7,11-trimethyl-6,10-dodecadienyl Anisate]
- Scent Emission Amount [1]: 23,338,647

Compound: CC(C)=CCC/C(C)=C/COC(=O)Cc1ccccc1 [geranyl phenylacetate]
- Scent Emission Amount [1]: 54,842,763
- Scent Emission Amount [8]: 39,033,900

Compound: CC(C)=CCC/C(C)=C/CC[C@H](C)CCOC(=O)/C=C/c1ccccc1 [Example 10, (S,E)-3,7,11-trimethyl-6,10-dodecadienyl Cinnamate]
- Scent Emission Amount [7]: 19,967,420
- Scent-Emitting Compound [7]: dihydrofarnesol

Compound: O=C(OCCc1ccccc1)c1ccccc1 [phenylethyl benzoate]
- Scent Emission Amount [1]: 96,460,830

Compound: O=C(Cc1ccccc1)OCCc1ccccc1 [phenylethyl phenylacetate]
- Scent Emission Amount [1]: 50,855,859

Compound: CCCC(CC[C@@H]1[C@@H](C)CCCC1(C)C)OC(=O)c1ccc(OC)cc1 (stereo partly drawn) [Example 3, 1-((R,6S)-2,2,6-trimethylcyclohexyl)-3-hexanyl Anisate]
- Scent Emission Amount [1]: 40,373,157
- Scent Emission Amount [7]: 40,430,750
